Data published in BindingDB's records for doi:10.1021/jm2012062 (Universidade Federal De Santa Catarina, 2012).

Target: T1, Low molecular weight protein-tyrosine phosphatase A (Mycobacterium tuberculosis (strain ATCC 25618 / H37Rv), UniProt P9WIA1)
T1 sequence (P9WIA1 whole entry): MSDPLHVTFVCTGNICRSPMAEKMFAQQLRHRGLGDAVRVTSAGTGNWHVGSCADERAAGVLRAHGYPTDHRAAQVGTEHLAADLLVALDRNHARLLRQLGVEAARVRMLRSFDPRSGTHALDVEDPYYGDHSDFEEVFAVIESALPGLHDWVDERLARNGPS
Test: Inhibition of Mycobacterium tuberculosis PTP-A

Compound | IC50 [µM]
COc1cc(-c2[nH]ccc2Cl)oc1C1=c2[nH]c3cc2[C@H](C(C)C)[C@H]1CCCCCCCC=3 | 8.8
C=c1[nH]c(=Cc2[nH]c(-c3ccc[nH]3)cc2OC)cc1CCCCC [PRODIGIOSIN] | 8.8
